From patent US20120238630A1, “COMPOSITIONS COMPRISING NONSTEROIDAL ANTI - INFLAMMATORY DRUGS” (Alfa Wassermann S.P.A., priority 2009, published 2012)

Experiment: Bioavailability / systemic FP plasma concentration after oral nebulization of the liquid composition containing FP
Format: in vivo, human
Description: The solutions have been administered to 26 healthy volunteers, among whom 16 were males and 10 females, aged between 18 and 55.
The healthy volunteers received the pharmaceutical composition prepared according to Example 1 in two 200 μl nebulizations three times a day, for a seven-day period, then a single administration on the eighth day.
[…]
During the period of administration of the composition object of the present invention, blood samples were taken before each administration and on days 1, 4, 6, 7 and 8.
The plasma concentration was determined for each patient before the first dose and, successively, in the morning of the days 1, 4, 6, 7 and 8 and after 1, 2, 3, 4, 6, 8, 10, 12, 16 and 24 hours since the last treatment.
Each sample was moved into a test tube containing heparin and centrifuged, and the plasma was divided into 500 μl aliquots and freezed at −80° C.
The following parameters were determined:
Tmax: time wherein Cmax is reached.
AUC: area subtended to the concentration-time curve calculated by means of the linear trapezoidal rule.

[1] = after the last administration (day 8)

FP average plasma concentrations (1 hour after the last administration (day 8)): 0.182 µg/mL
FP average plasma concentrations (2 hours after the last administration (day 8)): 0.144 µg/mL
FP average plasma concentrations (3 hours after the last administration (day 8)): 0.115 µg/mL
FP average plasma concentrations (4 hours after the last administration (day 8)): 0.096 µg/mL
FP average plasma concentrations (6 hours after the last administration (day 8)): 0.067 µg/mL
FP average plasma concentrations (8 hours after the last administration (day 8)): 0.045 µg/mL
FP average plasma concentrations (10 hours after the last administration (day 8)): 0.029 µg/mL
FP average plasma concentrations (12 hours after the last administration (day 8)): 0.020 µg/mL
FP average plasma concentrations (16 hours after the last administration (day 8)): 0.008 µg/mL
FP average plasma concentrations (24 hours after the last administration (day 8)): 0.001 µg/mL
FP systemic concentrations (after repeated oral nebulization, healthy volunteers): very low
AUC0-inf. [1]: 1140 ng·h/mL
AUC0-inf. higher than the AUC at the last point [1]: ca. 20%
Cmax (after the last administration (day 8), Example 1 composition nebulized in oral cavity, healthy volunteers): 182 ± 50 ng/mL
Tmax (after the last administration (day 8), Example 1 composition, healthy volunteers): 1 h
AUC0-24 (after the last administration (day 8), linear trapezoidal rule): 940 ng·h/mL
FP average plasma concentrations (day 1, time 0 (before the first dose), Example 1 composition, 26 healthy volunteers): 0.000 µg/mL
FP average plasma concentrations (day 4, time 0, two 200 μl nebulizations three times a day, Example 1 composition): 0.043 µg/mL
FP average plasma concentrations (day 6, time 0, two 200 μl nebulizations three times a day, Example 1 composition): 0.042 µg/mL
FP average plasma concentrations (day 7, time 0, two 200 μl nebulizations three times a day, Example 1 composition): 0.039 µg/mL
FP average plasma concentrations (day 8, time 0, after seven days of two 200 μl nebulizations three times a day, Example 1 composition): 0.040 µg/mL
amount absorbed, times lower than solutions of the same concentration administered by oral route (oropharyngeal application versus literature oral data (Stalker 1991; Gonzalez-Younes 1991)): about 10 times
FP accumulation in plasma after repeated administrations (three times a day for seven days, plasma on days 1, 4, 6, 7 and 8): no FP accumulation
Substance: 2-(2-fluoro-4-phenyl-phenyl) propionic acid [FP]
